Assay results taken from paper PMC4536136 (Bioorganic & medicinal chemistry, 2015).

Columns and labels:
[1] = target: intracellular Leishmania donovani strain MHOM/ET/67/L82 β-lactamase expressing parasites; settings: cited from earlier work; for EC50: read-out: L. donovani EC50, ref Van Horn et al.[18]
L. donovani = settings: 15 mg/kg/day for five days, ip; cited from earlier work
[2] = Pharmacokinetic analysis after ip administration in mice; format: in vivo; settings: for Kp / concentration at 4 h / concentration at 12 h: Swiss Webster, mouse, ip, 10 mg/kg; for Kp: liver and spleen (versus plasma)
BALB/c mice = test: Toxicity to BALB/c mice; format: in vivo

Row | Compound | EC50 [1] [nM] | Kp [2] | concentration at 4 h ([2]; liver) [µM] | concentration at 12 h ([2]; liver) [µM] | concentration at 4 h ([2]; spleen) [µM] | concentration at 12 h ([2]; spleen) [µM] | toxicity to BALB/c mice (BALB/c mice; 10 mg/kg/day × 5, ip) | toxicity to BALB/c mice (BALB/c mice; 30 mg/kg/day × 5, ip) | other results
1 | CNc1nc(NCc2ccccc2)nc2ccccc12 [Compound 2, N^2-benzyl-N^4-methylquinazoline-2,4-diamine] | 150 ± 20 | – | – | – | – | – | – | – | –
2 | Cc1ccc2c(NCc3ccco3)nc(NC(C)C)nc2c1 [Compound 4, N^4-(furan-2-ylmethyl)-N^2-isopropyl-7-methylquinazoline-2,4-diamine] | – | – | – | – | – | – | – | – | L. donovani EC50 ([1]; ref Van Horn et al.[18]): submicromolar; activity in L. donovani-infected mice (L. donovani): promising activity
3 | c1ccc(CNc2nc(NCc3ccccc3)c3ccccc3n2)cc1 [Compound 1, N^2,N^4-dibenzylquinazoline-2,4-diamine] | 670 ± 270 | – | – | – | – | – | – | – | –
4 | Clc1ccc(CNc2nc(NCc3ccccc3)c3ccccc3n2)cc1 [Compound 15, N^4-benzyl-N^2-(4-chlorobenzyl)quinazoline-2,4-diamine] | – | 20 to 21 | 25.3 | 25.3 | 26.6 | 26.6 | no apparent adverse effects | toxic | plasma AUC relative to 40 after adjusting for dose ([2]; 10 mg/kg ip, mice): 2.8 fold
5 | CC(C)Nc1nc(NCc2ccccc2)nc2ccccc12 [Compound 40, N^2-benzyl-N^4-isopropylquinazoline-2,4-diamine] | – | 3.2 to 16 | 20.2 | 20.2 | 16.5 | 16.5 | no apparent adverse effects | toxic | –
6 | CC(C)Nc1nc(NCc2ccco2)c2ccccc2n1 [Compound 3] | 2500 ± 400 | – | – | – | – | – | – | – | –
